In patent US4956344A, “Method for treatment of lesions in the large intestinal epithelium with a tripeptide” (Hafslund Nycomed A/S, priority 1989, dated 1990):
Several values for one entry are separate records, joined by “and”; a condition that tells them apart may be missing. Equal values may be shown once. Square brackets hold non-standard residues; d marks the D form. Peptide text beside a SMILES is read from it. pGlu = O=C1CC[C@@H](C(=O)O)N1

Assays:
[1] = tested on: large intestinal epithelium; assay: Labelling index (3HTdR-labelled crypt cells) in the large intestinal epithelium after i.p. injection; assay type: in vivo, hairless mice; design: key to Labelling index, Treated: fraction of labelled cells per 500 crypt cells; settings: for Labelling index, Treated: 10^-12 mole per animal
Procedure: (§1) All in vivo experiments were performed with hairless mice at 0800-0900 AM. The fractions were suspended in distilled water, slightly acidified (pH=6) and injected i.p. at different doses dependent on the purity of the fraction. The controls received solvent only. The pattern of cell proliferation after injecting the peptide was examined by varying the time between treatment and sacrifice.
(§2) Two hours before sacrifice (except for the experiments testing tissue specificity in the kidney) all animals received Colcemid 0.15 mg per animal i.p. ^3 HTdR (tritiated thymidine) was injected 30 minutes before sacrifice (30 μCi per animal i.p.).
Labelling index: Paraffin sections, cut at 5 μm, were dipped in Kodak-NTB emulsion and exposed for 3 weeks at 0°-4° C., developed, and stained with haematoxylin The number of labelled cells were counted per 500 crypt cells in longitudinally cut crypts as described above. Similarly, the number of labelled cells in 40 vision fields of interfollicular epidermis (eyepiece 12.5, objective 40) was determined. A cell was considered labelled when the number of grains was five or more.

[2] = tested on: kidney tubular epithelium; assay: Tissue specificity: mitotic rate in kidney cortex after unilateral nephrectomy; assay type: in vivo, hairless mice; settings: proliferation induced by contralateral nephrectomy; treated 18h after surgery, sacrifice at 42h
Procedure: (§3) To test for possible tissue specificity of the tripeptide the back skin and a defined part of ileum of eight animals were fixed immediately after killing. The mitotic rate (see below) in sections from these tissues was compared with the corresponding values in solvent-treated animals. Unilateral nephrectomy (uNX) was performed in four animals, and the animals were treated with the tripeptide at 18h after surgery. Controls underwent uNX and received solvent only. These animals received Colcemid 3h before sacrifice at 42h. The mitotic rate (number of accumulated metaphases per 1000 cells per 3h) was registered in the outer part of the kidney cortex.

[3] = tested on: large intestinal epithelium; assay: Mitotic rate (Colcemid-arrested metaphases) in the large intestinal epithelium after i.p. injection; assay type: in vivo, hairless mice; design: mitotic rate in the large intestinal epithelium, Treated group Mean / Mitotic rate, Treated: unit not given here; settings: for cell proliferation in the large intestinal epithelium (mitotic rate), Treated: mean
Procedure: as §1
Two hours before sacrifice (except for the experiments testing tissue specificity in the kidney) all animals received Colcemid 0.15 mg per animal i.p. ^3 HTdR (tritiated thymidine) was injected 30 minutes before sacrifice (30 μCi per animal i.p.). […]
Mitotic rate: After routine dehydration and paraffin embedding, sections were cut at 5 μm and stained with haematoxylin. Colcemid-arrested mitoses per 500 crypt cells were determined in ten longitudinally cut crypts in ileum and colon. Only crypts that were cut strictly longitudinally were accepted, viz., only those where the lumen of the crypt could be followed from the bottom of the gland to the lumen of the gut. No telophases were seen. The number of accumulated metaphases in epidermis Was determined by counting 25 vision fields of interfollicular epidermis (eyepiece 12.5, objective 40) and expressed as mitoses per vision field per 2h.

small intestine = assay: Tissue specificity: mitotic rate in small intestine (ileum); assay type: in vivo, hairless mice; settings: time and dose levels tested
Procedure: as §3, §2
(§4) Mitotic rate: After routine dehydration and paraffin embedding, sections were cut at 5 μm and stained with haematoxylin. Colcemid-arrested mitoses per 500 crypt cells were determined in ten longitudinally cut crypts in ileum and colon. Only crypts that were cut strictly longitudinally were accepted, viz., only those where the lumen of the crypt could be followed from the bottom of the gland to the lumen of the gut.

[4] = tested on: colon carcinoma cell line HT 29; assay: Proliferation of HT 29 cells, incorporation of tritiated thymidine; assay type: cell-based; settings: for incorporation of 3HTdR, Treated (Mean): 1 % fetal calf serum, 6 hour-period
Procedure: Cell culture: HT 29 cells, 20000 cells per well in 96-well tissue culture clusters. Medium: RPMI 1640, 1 % fetal calf serum Concentration of the tripeptide 10^-8 M, lyophilized peptide dissolved in medium.
Assay for proliferation: Incorporation of tritiated thymidine (^3 HTdR) 6 hour-period, ^3 HTdR 1 uCi per well.
The tripeptide was added to the culture on the third day (exponential growth), and the incorporation of tritiated thymidine was measured for 6 hour-periods at 16h, 24h, and 40h after the peptide was added to the wells.

epidermis = assay: Tissue specificity: mitotic rate in epidermis (back skin); assay type: in vivo, hairless mice; settings: time and dose levels tested
Procedure: as §3, §2, §4

In the case of `O=C(O)CNC(=O)[C@H](Cc1c[nH]cn1)NC(=O)[C@@H]1CCC(=O)N1` [pGlu-His-Gly(OH), L-pyroglutamyl-L-histidyl-glycine] ([pGlu]-His-Gly-OH), the “reduced LI, significance” value ([1]; 15 and 18 h after treatment) is reported as “not statistically significant”, the “Labelling index, Treated” value ([1]; 2 h after single i.p. injection) is reported as 0.086 and the “labelling index (LI)” value ([1]; 4h after injection) is reported as “pronounced reduction”. For the same molecule, the “Labelling index, Treated” value ([1]; 4 h after single i.p. injection) was 0.067, the “Labelling index, Treated” value ([1]; 6 h after single i.p. injection) was 0.067 and the “Labelling index, Treated” value ([1]; 8 h after single i.p. injection) was 0.058. For the same molecule, the “Labelling index, Treated” value ([1]; 12 h after single i.p. injection) was 0.048, the “Labelling index, Treated” value ([1]; 15 h after single i.p. injection) was 0.068 and the “Labelling index, Treated” value ([1]; 18 h after single i.p. injection) was 0.11. The “Labelling index, Treated” value ([1]; 24 h after single i.p. injection) was 0.098, the “number of labelled cells, second period” value ([1]; approximately 8h after the first decrease) was “second inhibition of the same degree” and the “inhibitory effect on cell proliferation in kidney tubular epithelium” value [2] was “No inhibitory effect”. For the same molecule, the “number of accumulated metaphases” value ([3]; 2-4h after injection, 10^-12 mole per animal i.p.) was “significantly reduced”, the “cell proliferation in the large intestinal epithelium (mitotic rate), Treated” value (from here on “cell proliferation … Treated”) ([3]; 10^-6 mole per animal i.p.) was 0.047 and the “cell proliferation … Treated” value ([3]; 10^-9 mole per animal i.p.) was 0.044. The “inhibition of mitotic rate in the large intestinal epithelium” value ([3]; 10^-11 mole per animal) was “smaller, but significant inhibition”, the “cell proliferation … Treated” value ([3]; 10^-11 mole per animal i.p., p<0.05) was 0.021 and the “reduction of the number of accumulated metaphases” value ([3]; 10^-12 mole per animal) was “more than 50%”. The “cell proliferation … Treated” value ([3]; 10^-12 mole per animal i.p., p<0.05) was 0.018, the “mitotic rate in the large intestinal epithelium, Treated group Mean” value ([3]; 10^-12 mole per animal, synthetic peptide, seven identical experiments in mice, one line each, p<0.05) was 0.018 and 0.021 and 0.026 and 0.043 and 0.025 and the “cell proliferation … Treated” value ([3]; 10^-15 mole per animal i.p.) was 0.042. For the same molecule, the “cell proliferation … Treated” value ([3]; 10^-18 mole per animal i.p.) was 0.035, the “Mitotic rate, Treated” value ([3]; 2 h after single i.p. injection, 10^-12 mole per animal) was 0.021 and the “Mitotic rate, Treated” value ([3]; 4 h after single i.p. injection, 10^-12 mole per animal) was 0.018. The “Mitotic rate, Treated” value ([3]; 6 h after single i.p. injection, 10^-12 mole per animal) was 0.027, the “Mitotic rate, Treated” value ([3]; 8 h after single i.p. injection, 10^-12 mole per animal) was 0.031 and the “Mitotic rate, Treated” value ([3]; 12 h after single i.p. injection, 10^-12 mole per animal) was 0.019. The “Mitotic rate, Treated” value ([3]; 15 h after single i.p. injection, 10^-12 mole per animal) was 0.010, the “Mitotic rate, Treated” value ([3]; 18 h after single i.p. injection, 10^-12 mole per animal) was 0.027 and the “Mitotic rate, Treated” value ([3]; 24 h after single i.p. injection, 10^-12 mole per animal) was 0.057. The “mitotic rate, second effect” value ([3]; approximately 15h after injection, less pronounced than the first, 10^-12 mole per animal) was “new Wave of inhibition”, the “decrease in cell proliferation in the large intestinal epithelium” value ([3]; doses higher than 10^-11 or lower than 10^-12 mole per animal) was “no significant decrease” and the “mitotic count in the treated group” value ([3]; thereafter, for a period of 6-8h, not formally significant, 10^-12 mole per animal) was “exceeded the control level”. For the same molecule, the “inhibitory effect on cell proliferation in the small intestine” value (small intestine) was “No inhibitory effect”, the “incorporation of 3HTdR, Treated (Mean)” value ([4]; 10^-8 M, 16 h after addition of peptide) was 12177 and the “incorporation of 3HTdR, Treated (Mean)” value ([4]; 10^-8 M, 24 h after addition of peptide) was 9080. For the same molecule, the “incorporation of 3HTdR, Treated (Mean)” value ([4]; 10^-8 M, 40 h after addition of peptide) was 12485, the “incorporation of 3HTdR” value ([4]; 10^-8 M, 24-30h after the treatment, 1 % serum) was “significant reduction” and the “inhibition of 3HTdR incorporation” value ([4]; 10^-10 M) was “less, but still significant inhibition”. The “growth of HT 29 cells with increased serum” value ([4]; serum addition increased to 10 &) was “varied between significant inhibition of growth and no effect” and the “inhibitory effect on cell proliferation in epidermis” value (epidermis) was “No inhibitory effect”.
In the case of `O=C(O)CC[C@H](NC(=O)[C@@H]1CCC(=O)N1)C(=O)N[C@@H](CC(=O)O)C(=O)N[C@@H](CO)C(=O)NCC(=O)O` [pGlu-Glu-Asp-Ser-Gly (OH), reference compound] ([pGlu]EDSG-OH), the “cell proliferation in the large intestinal epithelium” value ([3]; 10^-12 mole per animal, doses and times tested) is reported as “unchanged”.
